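Dose response: 5 concentrations. Exposure: 48 h. Format: 96-well plates. Endpoint: linear interpolation; highest concentration if not reached. GI50 marks 50% less growth. The concentration for full growth arrest is given as TGI.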

Among the test systems are HCT-116 colon; IGROV1 ovarian; MALME-3M melanoma; MDA-N; OVCAR-5 ovarian; PC-3 prostate; SK-MEL-2 melanoma; SN12C renal; TK-10 renal; UACC-62 melanoma; SR leukemia.
Holding throughout (assay): NCI tumour cell line growth inhibition, 48 h

With `Cc1cc(NCCCCCCCNc2cc(C)nc3cc([N+](=O)[O-])ccc23)c2ccc([N+](=O)[O-])cc2n1`, the TGI is 3.56 µM with HCT-116 colon; 37.1 µM in the experiment on IGROV1 ovarian; more than 71.1 µM in the experiment on MALME-3M melanoma; 3.18 µM with MDA-N; 29.8 µM in the experiment with OVCAR-5 ovarian; 31.1 µM in the experiment with PC-3 prostate. Also, the TGI is 98.3 µM in the experiment with SK-MEL-2 melanoma, 13.4 µM in the experiment on SN12C renal, 39 µM in the experiment on TK-10 renal and 53.2 µM in the experiment with UACC-62 melanoma.

In the case of `CC(C)(C)c1cc(C2COC(c3cc(C(C)(C)C)c(O)c(C(C)(C)C)c3)CO2)cc(C(C)(C)C)c1O` (stereo not drawn), the TGI in the experiment on HCT-116 colon, in the experiment on IGROV1 ovarian, with MALME-3M melanoma, in the experiment with MDA-N, in the experiment with OVCAR-5 ovarian and in the experiment with PC-3 prostate was more than 100 µM in each case. For the same compound, the TGI in the experiment with SK-MEL-2 melanoma, in the experiment with SN12C renal, with TK-10 renal and in the experiment with UACC-62 melanoma was more than 100 µM each time.

As to `Cc1ccc(N=Nc2c(O)c(C(=O)Nc3ccccc3)cc3ccccc23)c([N+](=O)[O-])c1`, the TGI in the experiment with HCT-116 colon, in the experiment with IGROV1 ovarian, in the experiment on MALME-3M melanoma, in the experiment with MDA-N, with OVCAR-5 ovarian and in the experiment with PC-3 prostate was more than 100 µM throughout. Further, the TGI in the experiment on SK-MEL-2 melanoma, with SN12C renal, in the experiment on TK-10 renal and with UACC-62 melanoma was more than 100 µM throughout.

As for `COc1cc2c(cc1OC)C1(c3ccc(Cl)cc3)ON=C(c3ccccc3)N1CS2` (stereo not drawn), the TGI in the experiment on HCT-116 colon, with IGROV1 ovarian, in the experiment with MALME-3M melanoma, in the experiment with OVCAR-5 ovarian, with SK-MEL-2 melanoma and in the experiment with SN12C renal was more than 100 µM in each case. For the same compound, the TGI in the experiment on SR leukemia, in the experiment with TK-10 renal and in the experiment on UACC-62 melanoma was more than 100 µM each time.

As for `CN(CCCNC(=O)c1nn(-c2ccc(Cl)cc2Cl)c2c1Cc1ccccc1-2)CCCNC(=O)c1nn(-c2ccc(Cl)cc2Cl)c2c1Cc1ccccc1-2`, the TGI with HCT-116 colon amounted to 3.15 µM; with MALME-3M melanoma it was 3.35 µM; in the experiment with MDA-N it was 3.17 µM; in the experiment on OVCAR-5 ovarian, 2.98 µM; with PC-3 prostate, 3.11 µM; with SK-MEL-2 melanoma it was 3.2 µM. In addition, the TGI came to 3.04 µM in the experiment on SN12C renal, 3.14 µM in the experiment with TK-10 renal and 2.92 µM in the experiment with UACC-62 melanoma.

`CNc1ccc(N)cc1C(=O)N1CCC[C@H]1CO`: the TGI in the experiment on HCT-116 colon, with IGROV1 ovarian, in the experiment on MALME-3M melanoma, in the experiment with MDA-N, with OVCAR-5 ovarian and with PC-3 prostate was more than 100 µM in each case. In addition, the TGI in the experiment on SK-MEL-2 melanoma, in the experiment on SN12C renal, in the experiment on TK-10 renal and in the experiment on UACC-62 melanoma was more than 100 µM throughout.

For `O=C(N/N=C/c1cc(Cl)cc(Cl)c1O)c1ccccc1O`, the figures for the GI50 in the experiment on HCT-116 colon, with MALME-3M melanoma and in the experiment on SK-MEL-2 melanoma were 2.48 µM, 2.8 µM and 1.39 µM, respectively. Besides, the TGI turned out to be 14.5 µM in the experiment with HCT-116 colon; 19.2 µM with IGROV1 ovarian; 11.6 µM in the experiment with MALME-3M melanoma; 7.82 µM in the experiment with OVCAR-5 ovarian; 6.87 µM in the experiment on SK-MEL-2 melanoma; 23.3 µM with SN12C renal. Moreover, the TGI with SR leukemia was more than 100 µM; in the experiment with TK-10 renal, 70.3 µM; in the experiment with UACC-62 melanoma it was 3.89 µM.

In the case of `COc1cc(C(c2ccc3c(c2)OCO3)N2C(=O)CCC2C(=O)O)cc(OC)c1OC` (stereo not drawn), the TGI in the experiment with HCT-116 colon, in the experiment on IGROV1 ovarian, in the experiment with MALME-3M melanoma, in the experiment on MDA-N, with OVCAR-5 ovarian and in the experiment with PC-3 prostate was more than 100 µM throughout. The TGI in the experiment on SK-MEL-2 melanoma, in the experiment on SN12C renal, with TK-10 renal and in the experiment with UACC-62 melanoma was more than 100 µM each time.

For the compound `CCC[C@H](C)C[C@H](C)C[C@H](C)/C=C(\C)[C@@H](O)[C@@H](C)C(=O)CC`, the TGI came to 33.9 µM in the experiment on HCT-116 colon; 36.2 µM in the experiment with IGROV1 ovarian; 33.6 µM in the experiment with MALME-3M melanoma; 34.1 µM in the experiment on OVCAR-5 ovarian; 37.2 µM with PC-3 prostate; 44.7 µM with SK-MEL-2 melanoma. For the same compound, the TGI in the experiment with SN12C renal worked out at 35.5 µM; with TK-10 renal it was 38.3 µM; in the experiment on UACC-62 melanoma it was 33.8 µM.

With `CC(NC(C)(C)C)C(=O)c1cccc(Cl)c1` (stereo not drawn), the TGI in the experiment with HCT-116 colon, with IGROV1 ovarian, in the experiment with MALME-3M melanoma, in the experiment on SK-MEL-2 melanoma, in the experiment with SN12C renal and in the experiment with TK-10 renal was more than 100 µM in each case. Besides, in the experiment with UACC-62 melanoma, the TGI was more than 100 µM.

With `O=C(Cc1ccccc1)NN1C(=O)C(Cl)C1c1ccccc1O` (stereo not drawn), the TGI is more than 100 µM in the experiment with HCT-116 colon; more than 100 µM with IGROV1 ovarian; 86.1 µM with MALME-3M melanoma; more than 100 µM with OVCAR-5 ovarian; more than 100 µM with SK-MEL-2 melanoma; more than 100 µM with SN12C renal. The TGI in the experiment with SR leukemia, with TK-10 renal and in the experiment on UACC-62 melanoma was more than 100 µM in each case.

In the case of `Cc1n[nH]c(=O)n1/N=C/c1ccc([N+](=O)[O-])o1`, the TGI is 30.2 µM with HCT-116 colon; 15.5 µM with MALME-3M melanoma; 53.1 µM in the experiment on OVCAR-5 ovarian; more than 100 µM with PC-3 prostate; more than 53.8 µM in the experiment with SK-MEL-2 melanoma; 14.4 µM with SN12C renal. Further, the TGI in the experiment with TK-10 renal came to 36.8 µM; in the experiment with UACC-62 melanoma, 33.6 µM.

With `c1ccc(CSCCc2ccncc2)cc1`, the TGI with HCT-116 colon, in the experiment with IGROV1 ovarian, with MALME-3M melanoma, in the experiment on MDA-N, in the experiment with OVCAR-5 ovarian and in the experiment with PC-3 prostate was more than 100 µM each time. In addition, the TGI in the experiment with SK-MEL-2 melanoma, in the experiment on SN12C renal, in the experiment with TK-10 renal and in the experiment with UACC-62 melanoma was more than 100 µM throughout.

With `O=C(/C=C/c1csc(-c2ccccc2)n1)NCc1ccc(C(=O)NCc2ccccc2)cc1`, the TGI in the experiment with HCT-116 colon, with IGROV1 ovarian, with MALME-3M melanoma, in the experiment with OVCAR-5 ovarian, in the experiment with PC-3 prostate and in the experiment with SK-MEL-2 melanoma was more than 100 µM throughout. For the same compound, the TGI is more than 100 µM in the experiment with SN12C renal, more than 100 µM with SR leukemia, 85.8 µM with TK-10 renal and more than 100 µM in the experiment with UACC-62 melanoma.
